T1: PF4 (Homo sapiens, UniProt P02776)
T1 construct: platelet factor 4 which is a 70 amino acid, lysine-rich, 7.8 kDa platelet-specific protein; made in house; host or cells: Drosophila Schneider 2 (S2) cells
T1 sequence (P02776 32-101): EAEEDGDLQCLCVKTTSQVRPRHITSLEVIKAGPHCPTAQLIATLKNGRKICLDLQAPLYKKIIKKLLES

B1: PF4: platelet factor 4, 70 amino acid, lysine-rich 7.8 kDa platelet-specific CXC chemokine protein (protein, UniProt P02776 32-101, looked up)
Platelet factor 4: T1 sequence (P02776 32-101)

Key:
[1] = target: T1, PF4; assay: DT40 cell (FcγRIIA + NFAT-Luc reporter) activation assay: inhibition by PF4 antagonists; assay type: cell-based; conditions: for IC50: PF4 10 μg/mL, heparin 0.3 U/mL, KKO 20 μg/mL, luciferase readout after 6 hours; for inhibition of FcγRIIA-dependent cellular activation (in words): activation by KKO, dose-response, FIG. 1C
Protocol: DT40 cells (chicken B cells) were cultured in RPMI supplemented with 10% fetal bovine serum, 1% chicken serum (Gibco), 50 μM 13-mercaptoethanol, 2 mM GlutaMAX (Gibco), 100 U/mL penicillin and 100 U/mL streptomycin at 37° C. under 5% CO2. Cells were co-transfected with 5 μg pEF6-FcγRIIA and 20 μg pEF6-NFAT-Luc by electroporation. Positive transformants were selected using blastidicin.
On day following transfection, cells were pelleted by centrifugation and re-suspended at 2×10^6 cells/mL in fresh medium without serum. Cell aliquots (50 μL) were placed into each well of a 96 well plate. To establish basal expression, 50 μL media was added. Further, the cells were also incubated independently with the following: PF4, heparin, RTO antibody, KKO antibody, ULCs alone, ULCs and RTO; ULCs and KKO and IV.3 antibody. Monoclonal antibody IV.3 (an FcγRIIA-blocking antibody) was used in combination with an anti-Fc antibody to activate FcγRIIA bound by IV.3 as a positive control for FcγRIIA signaling. 8 μg/mL of IV.3 was added for 15 minutes at 37° C. under 5% CO2, followed by 50 μL of sheep anti-mouse-IgG secondary antibody at 15 μg/mL to crosslink and activate these receptors. As a positive control for an intact intracellular signaling pathway, phorbol myristate acetate (PMA; 25 ng/mL) with ionomycin (1 μM) was added (not shown).
We then used this assay to measure the inhibitory capacity of the PF4 antagonist compounds described in the concurrently filed related application referenced above. PF4 (10 μg/mL) and various concentrations of potential antagonists were co-incubated for 60 min at 37° C. under 5% CO2 followed by the addition of heparin (0.3 U/mL) for 15 min at 37° C. in 5% CO2. KKO (20 μg/mL) or plasma from patients with serotonin release assay confirmed HIT (1:800 dilution) was then added. 50 μL of each mixture was added to the 96 well plate containing 50 μL of cells at a concentration of 2×10^6 cells/mL in fresh medium without serum. Plates were incubated for 6 hours at 37° C. under 5% CO2, and then frozen at −80° C. To measure activation, cells were thawed and lysed with 5× Passive Lysis Buffer (Promega) for 15 minutes. Luciferase activity was measured on a Berthold MultiLumat LB 9506 Luminometer (10 sec readings) using Promega's Luciferase Assay Reagent following the manufacturer's instructions. In other experiments, PF4 antagonists discussed herein were incubated with PF4 for 5 minutes with the same results.

[2] = test system: platelets; assay: Serotonin release assay with 14C-labeled platelets; assay type: cell-based, human; conditions: for inhibition of platelet activation by KKO (release of 14C-serotonin): KKO 170 μg/mL, heparin 1.0 U/mL, antagonists 2.5 mM, FIG. 1E
Protocol: To confirm the results of the novel assay, an independent, orthogonal assessment of activity was performed using a serotonin release assay. Serotonin release assays are described in Hirschman, “The use of platelet serotonin release as a sensitive method for detecting anti-platelet antibodies and a plasma anti-platelet factor in patients with idiopathic thrombocytopenic purpura”, Br. J. Haematol., 24(6):793-802 (1973), and Rauova and Cines, “Heparin-associated thrombocytopenia”, N. Engl. J. Med., 303:788-795 (1980), which are hereby incorporated by reference.
Briefly, platelet rich plasma (PRP) from healthy donors was incubated with 0.5 μL ^14C-5-hydroxytryptamine creatinine sulfate (GE Life Sciences, Piscataway, N.J.) per milliliter of PRP for 20 minutes at 37° C. to produce ^14C-labeled platelets. Serotonin uptake was inhibited by adding […] imipramine (Sigma-Aldrich, St. Louis, Mo.) to the PRP.
The radiolabeled platelets were mixed with KKO (170 μg/mL) or with known platelet-activating HIT plasma in the absence (buffer control) or presence of PF4 antagonist compounds 1, 34, 80, 101, and 96. Assays were performed in the presence of heparin (1.0 U/mL) and in the absence of heparin (background). Negative controls without antibody were studied in parallel. Data are expressed as % maximal release of radioactivity with release by the positive control plasma and 1.0 U/mL heparin defined as 100%.

[3] = test system: FcγRIIA; assay: Activation of DT40 cells transfected with FcγRIIA and a Luc reporter; assay type: cell-based, human; conditions: FIG. 1A
Protocol: B cells used in the novel assays of the invention were prepared as follows. NFAT-Luc was kindly provided by Prof Arthur Weiss (Shapiro, “c-rel Regulation of IL-2 gene expression may be mediated through activation of AP-1”, J. Exp. Med., 184(5):1663-1669 (1996), hereby incorporated by reference). The NFAT reporter contains three copies of a composite NFAT-activator protein-1 (AP-1) element from the human interleukin-2 (IL-2) gene promoter, and is activated by binding of NFAT (nuclear factor of activated T-cells). pEF6-FcγRIIA, which contains the human FcγRIIA coding sequence under the control of the human EF-1a promoter, was constructed by cloning a human FcγRIIA IMAGE clone into the multiple cloning site of pEF6c (Invitrogen).
DT40 cells (chicken B cells) were cultured in RPMI supplemented with 10% fetal bovine serum, 1% chicken serum (Gibco), 50 μM 13-mercaptoethanol, 2 mM GlutaMAX (Gibco), 100 U/mL penicillin and 100 U/mL streptomycin at 37° C. under 5% CO2. Cells were co-transfected with 5 μg pEF6-FcγRIIA and 20 μg pEF6-NFAT-Luc by electroporation. Positive transformants were selected using blastidicin. […]
It was next examined whether FcγRIIA activation was heparin-dependent. To do so, activation by KKO was measured using a constant amount of PF4 and increasing amounts of heparin. […]

| Molecule | IC50 [1] [µM] | inhibition of FcγRIIA-dependent cellular activation (in words) [1] | inhibition of platelet activation by KKO (release of 14C-serotonin) [2] | inhibition of DT40 activation by human HIT plasma ([1]; HIT plasma 1:800 dilution, similar potency as activation by KKO, FIG. 1D) | inhibition of DT40 activation by KKO and patient samples ([1]; antagonist concentration 500 μM, KKO and plasma from three HIT patients, FIG. 1D) | inhibition of serotonin release from platelets activated by plasma from patients with HIT ([2]; HIT plasma, several antagonist concentrations, FIG. 1F) | activation of FcγRIIA-expressing DT40 cells, substance added alone [3] |
| --- | --- | --- | --- | --- | --- | --- | --- |
| O=C(O)CCc1ccc(-c2ccc(Cl)cc2)n1CC(=O)O [Compound 80] | 440 | less potent | inhibited |  |  |  |  |
| O=C(O)c1ccccc1OP(=O)(O)O [Compound 96] | 500 | less potent | inhibited |  |  |  |  |
| O=C1CC([PH](=O)O)CO1 (stereo not shown) [Compound 34] | > 500 | not inhibitory |  |  |  |  |  |
| CCOC(=O)Cn1c(CCC(=O)O)ccc1-c1ccc(Cl)cc1 [Compound 101] | 100 | complete inhibition | inhibited | inhibited | completely inhibited | inhibited |  |
| CC(=O)C1=C(O)c2cc([N+](=O)[O-])ccc2C1=O [Compound 1] | 33 |  |  |  |  |  |  |
| B1 |  |  |  |  |  |  | did not activate |

Source: patent US20150037821A1, “METHODS OF IDENTIFYING HIT-ANTIBODIES AND PF4 ANTAGONISTS AND CELL LINES FOR USE THEREIN” (THE TRUSTEES OF THE UNIVERSITY OF PENNSYLVANIA, priority 2012, published 2015)
